Measured values reported in ChEMBL document CHEMBL1909046, “DrugMatrix in vitro pharmacology data”.

How the values were obtained:
[1] = target: Receptor tyrosine-protein kinase erbB-2 (Homo sapiens, UniProt P04626); test: biochemical; assay type: cell-based, Insect cells;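 note: inhibition of HER2 kinase enzyme activity, measured with Poly(Glu:Tyr) as the phosphorylation substrate; in other assays of this panel Not Active means under 50% inhibition at 10 µM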
[2] = target: Voltage-gated inwardly rectifying potassium channel KCNH2 (Homo sapiens, UniProt Q12809); conditions: hek293; note: in other assays of this panel Not Active means under 50% inhibition at 10 µM
Sequence of Voltage-gated inwardly rectifying potassium channel KCNH2 (Q12809 whole entry): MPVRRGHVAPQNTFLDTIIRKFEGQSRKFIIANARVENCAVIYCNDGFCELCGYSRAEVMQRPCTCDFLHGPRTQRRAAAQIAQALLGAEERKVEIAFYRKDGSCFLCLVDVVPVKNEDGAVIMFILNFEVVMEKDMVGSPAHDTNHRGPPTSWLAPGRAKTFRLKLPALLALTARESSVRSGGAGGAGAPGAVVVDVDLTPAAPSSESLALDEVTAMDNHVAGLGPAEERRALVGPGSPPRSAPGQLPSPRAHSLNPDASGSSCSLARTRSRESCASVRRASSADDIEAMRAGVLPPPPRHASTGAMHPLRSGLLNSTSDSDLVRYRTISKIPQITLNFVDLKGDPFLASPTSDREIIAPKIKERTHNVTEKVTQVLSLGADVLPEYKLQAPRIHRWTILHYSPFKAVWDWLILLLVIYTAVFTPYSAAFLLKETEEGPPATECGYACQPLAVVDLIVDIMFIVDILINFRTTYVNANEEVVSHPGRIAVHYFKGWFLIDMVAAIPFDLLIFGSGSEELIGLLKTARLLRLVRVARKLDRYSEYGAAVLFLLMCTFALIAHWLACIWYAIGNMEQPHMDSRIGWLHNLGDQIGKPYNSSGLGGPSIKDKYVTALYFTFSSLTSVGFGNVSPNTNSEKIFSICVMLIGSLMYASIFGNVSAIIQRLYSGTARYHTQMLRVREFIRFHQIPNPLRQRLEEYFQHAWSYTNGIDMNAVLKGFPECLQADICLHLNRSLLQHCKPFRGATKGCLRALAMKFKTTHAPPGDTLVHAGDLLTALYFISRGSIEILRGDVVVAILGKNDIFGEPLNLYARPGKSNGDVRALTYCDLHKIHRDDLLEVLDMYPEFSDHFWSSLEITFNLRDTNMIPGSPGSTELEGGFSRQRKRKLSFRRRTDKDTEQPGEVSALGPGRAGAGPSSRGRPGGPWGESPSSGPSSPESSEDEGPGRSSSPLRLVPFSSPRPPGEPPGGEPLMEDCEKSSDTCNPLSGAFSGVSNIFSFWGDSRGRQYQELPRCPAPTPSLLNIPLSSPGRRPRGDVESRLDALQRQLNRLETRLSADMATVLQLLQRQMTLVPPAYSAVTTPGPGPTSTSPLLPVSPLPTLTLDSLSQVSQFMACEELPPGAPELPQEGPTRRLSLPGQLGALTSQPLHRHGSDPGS

[3] = target: T1, Neuropeptide Y receptor type 1 (Homo sapiens, UniProt P25929); assay type: cell membranes, Membrane; conditions: sk-n-mc; note: in other assays of this panel Not Active means under 50% inhibition at 10 µM
T1 sequence (P25929 whole entry): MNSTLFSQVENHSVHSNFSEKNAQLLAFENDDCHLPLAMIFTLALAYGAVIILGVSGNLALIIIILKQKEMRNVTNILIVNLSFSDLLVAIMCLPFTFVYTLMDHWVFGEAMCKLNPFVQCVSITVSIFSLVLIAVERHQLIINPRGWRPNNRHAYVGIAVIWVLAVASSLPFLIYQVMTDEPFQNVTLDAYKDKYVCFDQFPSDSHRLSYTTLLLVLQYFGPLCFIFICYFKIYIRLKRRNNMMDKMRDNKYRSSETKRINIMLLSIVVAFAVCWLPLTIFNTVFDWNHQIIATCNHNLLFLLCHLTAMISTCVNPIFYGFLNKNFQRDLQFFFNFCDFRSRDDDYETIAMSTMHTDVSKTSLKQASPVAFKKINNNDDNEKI

[4] = DRUGMATRIX: Sigma2 radioligand binding (ligand: [3H] Ifenprodil); assay type: cell membranes, Rattus norvegicus, Wistar, Brain, Membrane; conditions: Not Active = under 50% inhibition at 10 µM
Insulin receptor = Insulin receptor (Rattus norvegicus, UniProt P15127); assay type: cell membranes, Wistar, Liver, Membrane; note: in other assays of this panel Not Active means under 50% inhibition at 10 µM
[5] = target: Epidermal growth factor receptor (Homo sapiens, UniProt P00533); test: DRUGMATRIX: Protein Tyrosine Kinase, EGF Receptor enzyme inhibition (substrate: Poly(Glu:Tyr)); assay type: cell-based, Insect cells; conditions: Not Active = under 50% inhibition at 10 µM
Sequence of Epidermal growth factor receptor (P00533 whole entry): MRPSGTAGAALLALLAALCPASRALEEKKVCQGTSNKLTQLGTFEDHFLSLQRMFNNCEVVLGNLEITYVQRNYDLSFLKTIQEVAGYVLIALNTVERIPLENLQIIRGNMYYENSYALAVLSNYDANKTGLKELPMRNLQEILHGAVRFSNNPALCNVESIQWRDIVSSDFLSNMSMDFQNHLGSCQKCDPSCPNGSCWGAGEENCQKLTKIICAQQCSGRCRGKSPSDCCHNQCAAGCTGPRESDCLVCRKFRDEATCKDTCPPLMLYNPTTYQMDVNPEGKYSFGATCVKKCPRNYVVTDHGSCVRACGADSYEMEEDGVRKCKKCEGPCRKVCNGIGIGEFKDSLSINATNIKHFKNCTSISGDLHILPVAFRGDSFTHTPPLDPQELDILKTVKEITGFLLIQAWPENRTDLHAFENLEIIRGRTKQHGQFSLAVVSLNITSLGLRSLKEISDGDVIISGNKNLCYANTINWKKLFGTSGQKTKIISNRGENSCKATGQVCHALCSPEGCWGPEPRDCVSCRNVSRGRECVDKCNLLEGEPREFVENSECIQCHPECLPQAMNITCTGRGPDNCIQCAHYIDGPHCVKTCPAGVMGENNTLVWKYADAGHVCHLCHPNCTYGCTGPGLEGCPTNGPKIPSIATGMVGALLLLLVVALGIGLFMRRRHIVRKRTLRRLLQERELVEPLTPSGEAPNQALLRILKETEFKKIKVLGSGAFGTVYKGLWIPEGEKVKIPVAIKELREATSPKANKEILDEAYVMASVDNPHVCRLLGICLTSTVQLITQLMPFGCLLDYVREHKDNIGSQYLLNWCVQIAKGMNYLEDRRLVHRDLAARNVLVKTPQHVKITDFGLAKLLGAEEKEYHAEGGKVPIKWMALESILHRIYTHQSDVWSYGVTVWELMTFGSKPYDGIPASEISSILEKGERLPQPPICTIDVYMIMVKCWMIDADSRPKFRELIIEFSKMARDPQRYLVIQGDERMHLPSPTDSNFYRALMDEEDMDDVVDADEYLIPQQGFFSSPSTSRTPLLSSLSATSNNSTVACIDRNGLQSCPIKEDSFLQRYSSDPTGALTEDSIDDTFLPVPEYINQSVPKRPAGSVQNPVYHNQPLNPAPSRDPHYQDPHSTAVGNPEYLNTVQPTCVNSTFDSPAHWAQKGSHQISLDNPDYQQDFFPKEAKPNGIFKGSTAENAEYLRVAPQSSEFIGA

Caspase-1 = target: T2, Caspase-1 (Homo sapiens, UniProt P29466); set-up: species or system Escherichia coli
T2 sequence (P29466 whole entry): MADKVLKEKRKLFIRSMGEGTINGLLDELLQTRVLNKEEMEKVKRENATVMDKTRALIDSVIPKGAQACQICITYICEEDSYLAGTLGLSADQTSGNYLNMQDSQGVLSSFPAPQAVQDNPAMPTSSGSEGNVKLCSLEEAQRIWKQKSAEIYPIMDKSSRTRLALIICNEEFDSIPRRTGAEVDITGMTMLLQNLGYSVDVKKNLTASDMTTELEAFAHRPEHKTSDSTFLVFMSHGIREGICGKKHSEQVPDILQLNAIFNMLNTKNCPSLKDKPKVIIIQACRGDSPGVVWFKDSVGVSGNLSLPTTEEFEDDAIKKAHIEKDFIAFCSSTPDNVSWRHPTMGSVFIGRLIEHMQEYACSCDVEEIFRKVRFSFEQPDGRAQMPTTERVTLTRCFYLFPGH

[6] = target: Platelet-activating factor receptor (Homo sapiens, UniProt P25105); assay type: tissue-based; note: in other assays of this panel Not Active means under 50% inhibition at 10 µM
Sequence of Platelet-activating factor receptor (P25105 whole entry): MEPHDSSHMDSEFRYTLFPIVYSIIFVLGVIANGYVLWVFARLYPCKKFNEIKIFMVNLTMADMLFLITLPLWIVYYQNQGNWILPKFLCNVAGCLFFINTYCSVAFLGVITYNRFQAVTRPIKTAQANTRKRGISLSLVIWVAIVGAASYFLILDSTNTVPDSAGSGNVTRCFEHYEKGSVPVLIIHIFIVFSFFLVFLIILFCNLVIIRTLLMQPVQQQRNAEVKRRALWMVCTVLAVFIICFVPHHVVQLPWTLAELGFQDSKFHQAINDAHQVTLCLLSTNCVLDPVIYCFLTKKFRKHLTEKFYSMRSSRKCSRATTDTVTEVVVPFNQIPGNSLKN

Sequence of Receptor tyrosine-protein kinase erbB-2 (P04626 whole entry): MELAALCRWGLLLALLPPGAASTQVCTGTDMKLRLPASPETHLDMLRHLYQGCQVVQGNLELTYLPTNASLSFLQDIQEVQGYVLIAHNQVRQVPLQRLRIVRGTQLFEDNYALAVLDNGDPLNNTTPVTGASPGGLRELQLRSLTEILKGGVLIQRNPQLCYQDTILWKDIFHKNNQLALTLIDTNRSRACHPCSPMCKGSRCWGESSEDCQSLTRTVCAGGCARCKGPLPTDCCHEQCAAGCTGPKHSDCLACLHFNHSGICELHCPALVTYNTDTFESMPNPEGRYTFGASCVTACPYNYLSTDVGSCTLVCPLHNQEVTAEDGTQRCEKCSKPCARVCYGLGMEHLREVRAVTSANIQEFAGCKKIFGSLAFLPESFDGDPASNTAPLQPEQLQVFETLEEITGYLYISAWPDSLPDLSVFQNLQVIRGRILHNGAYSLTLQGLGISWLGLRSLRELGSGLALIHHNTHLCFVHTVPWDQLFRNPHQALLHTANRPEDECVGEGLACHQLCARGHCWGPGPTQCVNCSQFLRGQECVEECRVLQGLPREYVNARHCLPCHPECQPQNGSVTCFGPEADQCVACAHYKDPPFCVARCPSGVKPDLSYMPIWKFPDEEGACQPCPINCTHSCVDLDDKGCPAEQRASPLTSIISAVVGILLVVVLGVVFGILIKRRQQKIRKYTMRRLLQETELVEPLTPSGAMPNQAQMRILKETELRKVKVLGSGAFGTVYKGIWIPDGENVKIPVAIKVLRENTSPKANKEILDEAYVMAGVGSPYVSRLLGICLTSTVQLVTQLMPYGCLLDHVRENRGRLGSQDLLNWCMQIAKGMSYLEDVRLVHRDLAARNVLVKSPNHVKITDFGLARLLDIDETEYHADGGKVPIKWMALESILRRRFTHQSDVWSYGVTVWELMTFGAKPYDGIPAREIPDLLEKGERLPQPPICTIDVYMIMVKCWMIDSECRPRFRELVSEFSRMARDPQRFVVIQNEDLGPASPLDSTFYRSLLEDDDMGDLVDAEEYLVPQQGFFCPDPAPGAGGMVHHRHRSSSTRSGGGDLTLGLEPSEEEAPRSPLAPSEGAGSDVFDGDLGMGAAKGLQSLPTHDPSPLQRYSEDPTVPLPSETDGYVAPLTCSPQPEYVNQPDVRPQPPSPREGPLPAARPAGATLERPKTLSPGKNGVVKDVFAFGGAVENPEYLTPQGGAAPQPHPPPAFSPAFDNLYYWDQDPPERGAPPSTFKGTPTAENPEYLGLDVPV

Structure (SMILES)	IC50 ([1]; insect cells)	IC50 [2]	Ki [2]	IC50 [3]	IC50 [4]	Ki [4]	IC50 (Insulin receptor)	IC50 ([5]; insect cells)	IC50 (Caspase-1)	IC50 [6]	IC50 ([1]; read-out: IC50) [nM]	IC50 ([5]; read-out: IC50) [nM]
Nc1ccn([C@@H]2O[C@H](CO)[C@@H](O)C2(F)F)c(=O)n1 [GEMCITABINE]	Not Active	Not Active	Not Active	Not Active	Not Active	Not Active	Not Active	Not Active	Not Active	Not Active	–	–
CC(C)=CCC/C(C)=C/CO [GERANIOL]	Not Active	Not Active	Not Active	Not Active	Not Active	Not Active	Not Active	Not Active	Not Active	Not Active	–	–
N=C(N)NC(=O)Cc1c(Cl)cccc1Cl [GUANFACINE]	Not Active	Not Active	Not Active	Not Active	Not Active	Not Active	Not Active	Not Active	Not Active	Not Active	–	–
Oc1c(Cl)cc(Cl)c(Cl)c1Cc1c(O)c(Cl)cc(Cl)c1Cl [HEXACHLOROPHENE]	–	Not Active	Not Active	Not Active	Not Active	Not Active	Not Active	–	Not Active	Not Active	3320	749
NNc1nncc2ccccc12 [HYDRALAZINE]	Not Active	Not Active	Not Active	Not Active	Not Active	Not Active	Not Active	Not Active	Not Active	Not Active	–	–
CC(=O)[C@@]1(O)CC[C@H]2[C@@H]3CCC4=CC(=O)CC[C@]4(C)[C@H]3CC[C@@]21C [HYDROXYPROGESTERONE]	Not Active	Not Active	Not Active	Not Active	Not Active	Not Active	Not Active	Not Active	Not Active	Not Active	–	–
COC1=C(OC)C(=O)C(CCCCCCCCCCO)=C(C)C1=O [IDEBENONE]	Not Active	Not Active	Not Active	Not Active	Not Active	Not Active	Not Active	Not Active	Not Active	Not Active	–	–
CC(C)NNC(=O)c1ccncc1 [IPRONIAZID]	Not Active	Not Active	Not Active	Not Active	Not Active	Not Active	Not Active	Not Active	Not Active	Not Active	–	–
Cc1c(OCC(F)(F)F)ccnc1C[S+]([O-])c1nc2ccccc2[nH]1 (stereo not given) [LANSOPRAZOLE]	Not Active	Not Active	Not Active	Not Active	Not Active	Not Active	Not Active	Not Active	Not Active	Not Active	–	–
COc1ccc2[nH]cc(CCNC(C)=O)c2c1 [MELATONIN]	Not Active	Not Active	Not Active	Not Active	Not Active	Not Active	Not Active	Not Active	Not Active	Not Active	–	–
NC(=O)C[S+]([O-])C(c1ccccc1)c1ccccc1 (stereo not given) [MODAFINIL]	Not Active	Not Active	Not Active	Not Active	Not Active	Not Active	Not Active	Not Active	Not Active	Not Active	–	–
O=C(O)c1cccnc1Nc1cccc(C(F)(F)F)c1 [NIFLUMIC ACID]	Not Active	Not Active	Not Active	Not Active	Not Active	Not Active	Not Active	Not Active	Not Active	Not Active	–	–
